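Cells were grown in 96-well plates and exposed to each compound for 48 hours at five concentrations; endpoints were interpolated linearly between bracketing concentrations, or set to the highest concentration if not reached. TGI: concentration producing complete growth inhibition.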
Key:
Test in all cases: growth of human tumour cells (NCI), 48 h
[1] = test system: 786-0 renal
[2] = test system: A498 renal
[3] = test system: A549 NSCLC
[4] = test system: ACHN renal
[5] = test system: BT-549 breast
[6] = test system: CAKI-1 renal
[7] = test system: CCRF-CEM leukemia
[8] = test system: COLO 205 colon
[9] = test system: DU-145 prostate
[10] = test system: EKVX NSCLC
[11] = test system: HCC-2998 colon
[12] = test system: HCT-116 colon
[13] = test system: HCT-15 colon
[14] = test system: HL-60(TB) leukemia
[15] = test system: HOP-62 NSCLC
[16] = test system: HOP-92 NSCLC
[17] = test system: HS 578T breast
[18] = test system: HT29 colon
[19] = test system: IGROV1 ovarian
[20] = test system: K-562 leukemia
[21] = test system: KM12 colon
[22] = test system: LOX IMVI melanoma
[23] = test system: M14 melanoma
[24] = test system: MALME-3M melanoma
[25] = test system: MCF7 breast
[26] = test system: MDA-MB-231 breast
[27] = test system: MDA-MB-435
[28] = test system: MOLT-4 leukemia
[29] = test system: NCI-H226 lung
[30] = test system: NCI-H23 lung
[31] = test system: NCI-H460 lung
[32] = test system: NCI-H522 lung
[33] = test system: NCI/ADR-RES ovarian
[34] = test system: OVCAR-3 ovarian
[35] = test system: OVCAR-4 ovarian
[36] = test system: OVCAR-5 ovarian
[37] = test system: OVCAR-8 ovarian
[38] = test system: PC-3 prostate
[39] = test system: RPMI-8226 leukemia
[40] = test system: RXF 393 renal
[41] = test system: SF-268 CNS
[42] = test system: SF-295 CNS
[43] = test system: SK-MEL-2 melanoma
[44] = test system: SK-MEL-28 melanoma
[45] = test system: SK-MEL-5 melanoma
[46] = test system: SK-OV-3 ovarian
[47] = test system: SN12C renal
[48] = test system: SNB-19 CNS
[49] = test system: SNB-75 CNS
[50] = test system: SR leukemia
[51] = test system: SW-620 colon
[52] = test system: T-47D breast
[53] = test system: U251 CNS
[54] = test system: UACC-257 melanoma
[55] = test system: UACC-62 melanoma
[56] = test system: UO-31 renal

Measured: TGI

CC1(C)CCCCCC(C)(CCCO)C1=O (stereo unspecified)
> 100 µM: all assays above
